Experimental data published in ChEMBL document CHEMBL3045429, “Exploration of antimicrobial potential of pyrazolo[3,4-b]pyridine scaffold bearing benzenesulfonamide and trifluoromethyl moieties” (2013).
Converted amounts (≈) assume the structure as drawn. The source made the active and inactive calls. The calls are words filed in the database; no cut-off is given here.

Assays:
Staphylococcus aureus [1] = experiment: Antibacterial activity against Staphylococcus aureus MTCC 96 assessed as growth inhibition after 24 hr by agar well diffusion method; assay type: functional; details: MTCC 96, 24 h
Bacillus subtilis [2] = experiment: Antibacterial activity against Bacillus subtilis MTCC 121 assessed as growth inhibition after 24 hr by agar well diffusion method; assay type: functional; details: MTCC 121, 24 h
Escherichia coli = experiment: Antibacterial activity against Escherichia coli MTCC 1652 assessed as growth inhibition at 4 mg/mL after 24 hr by agar well diffusion method; assay type: functional, organism-based
Bacillus subtilis [3] = experiment: Antibacterial activity against Bacillus subtilis MTCC 121 assessed as growth inhibition at 4 mg/mL after 24 hr by agar well diffusion method; assay type: functional; details: for zone of inhibition at 4000 µg/mL: MTCC 121, 24 h, read-out: DIZ
Saccharomyces cerevisiae [4] = experiment: Antifungal activity against Saccharomyces cerevisiae MTCC 170 assessed as growth inhibition at 4 mg/mL after 24 hr by agar well diffusion method; assay type: functional; details: for zone of inhibition at 4000 µg/mL: MTCC 170, 24 h, read-out: DIZ
Staphylococcus aureus [5] = experiment: Antibacterial activity against Staphylococcus aureus MTCC 96 assessed as growth inhibition at 4 mg/mL after 24 hr by agar well diffusion method; assay type: functional; details: for zone of inhibition at 4000 µg/mL: MTCC 96, 24 h, read-out: DIZ
Candida albicans [6] = experiment: Antifungal activity against Candida albicans MTCC 227 assessed as growth inhibition at 4 mg/mL after 24 hr by agar well diffusion method; assay type: functional; details: for zone of inhibition at 4000 µg/mL: MTCC 227, 24 h, read-out: DIZ
Saccharomyces cerevisiae [7] = experiment: Antifungal activity against Saccharomyces cerevisiae MTCC 170 assessed as growth inhibition after 24 hr by agar well diffusion method; assay type: functional; details: MTCC 170, 24 h
Candida albicans [8] = experiment: Antifungal activity against Candida albicans MTCC 227 assessed as growth inhibition after 24 hr by agar well diffusion method; assay type: functional; details: MTCC 227, 24 h

| SMILES | MIC (Staphylococcus aureus [1]) [µg/mL] | MIC (Bacillus subtilis [2]) [µg/mL] | growth inhibition (GI) (Escherichia coli) | zone of inhibition at 4000 µg/mL (Bacillus subtilis [3]) [mm] | growth inhibition (GI) (Saccharomyces cerevisiae [4]) | zone of inhibition at 4000 µg/mL (Staphylococcus aureus [5]) [mm] | growth inhibition (GI) (Candida albicans [6]) | growth inhibition (GI) (Bacillus subtilis [3]) | growth inhibition (GI) (Staphylococcus aureus [5]) | zone of inhibition at 4000 µg/mL (Saccharomyces cerevisiae [4]) [mm] | MIC (Saccharomyces cerevisiae [7]) [µg/mL] | zone of inhibition at 4000 µg/mL (Candida albicans [6]) [mm] | MIC (Candida albicans [8]) [µg/mL] |
| --- | --- | --- | --- | --- | --- | --- | --- | --- | --- | --- | --- | --- | --- |
| Cc1ccc(-c2nn(-c3ccc(S(N)(=O)=O)cc3)c3nc(-c4ccc(Br)cc4)cc(C(F)(F)F)c23)cc1 | 256 (≈ 436 µM) | 128 (≈ 218 µM) | inactive | 15.6 | inactive | 14.3 | inactive |  |  |  |  |  |  |
| NS(=O)(=O)c1ccc(-n2nc(-c3ccc(Cl)cc3)c3c(C(F)(F)F)cc(-c4ccccc4)nc32)cc1 |  |  | inactive |  | inactive |  | inactive | inactive | inactive |  |  |  |  |
| NS(=O)(=O)c1ccc(-n2nc(-c3ccccc3)c3c(C(F)(F)F)cc(-c4ccc(Br)cc4)nc32)cc1 | 64 (≈ 112 µM) | 64 (≈ 112 µM) | inactive | 17.6 |  | 18.3 |  |  |  | 14.6 | 256 (≈ 446 µM) | 13.6 | > 256 |
| Cc1ccc(-c2cc(C(F)(F)F)c3c(-c4ccccc4)nn(-c4ccc(S(N)(=O)=O)cc4)c3n2)cc1 | 32 (≈ 62.9 µM) | 64 (≈ 126 µM) | inactive | 20.3 |  | 21.3 |  |  |  | 15.6 | 64 (≈ 126 µM) | 16.3 | 64 (≈ 126 µM) |
| Cc1ccc(-c2nn(-c3ccc(S(N)(=O)=O)cc3)c3nc(-c4ccc(F)cc4)cc(C(F)(F)F)c23)cc1 | > 256 | 128 (≈ 243 µM) | inactive | 15.6 | inactive | 13.6 | inactive |  |  |  |  |  |  |
| Cc1ccc(-c2nn(-c3ccc(S(N)(=O)=O)cc3)c3nc(C)cc(C(F)(F)F)c23)cc1 | 128 (≈ 287 µM) | 128 (≈ 287 µM) | inactive | 16.3 | inactive | 15.3 | inactive |  |  |  |  |  |  |
| NS(=O)(=O)c1ccc(-n2nc(-c3ccc(Cl)cc3)c3c(C(F)(F)F)cc(-c4ccc(Cl)cc4)nc32)cc1 |  |  | inactive |  | inactive |  | inactive | inactive | inactive |  |  |  |  |
| NS(=O)(=O)c1ccc(-n2nc(-c3ccccc3)c3c(C(F)(F)F)cc(-c4ccc(F)cc4)nc32)cc1 | 128 (≈ 250 µM) | 64 (≈ 125 µM) | inactive | 19.6 |  | 17.6 |  |  |  | 15.3 | 64 (≈ 125 µM) | 14.6 | 128 (≈ 250 µM) |
| Cc1ccc(-c2nn(-c3ccc(S(N)(=O)=O)cc3)c3nc(-c4ccc5ccccc5c4)cc(C(F)(F)F)c23)cc1 | 128 (≈ 229 µM) | 128 (≈ 229 µM) | inactive | 15.6 |  | 15.6 |  |  |  | 15.6 | 32 (≈ 57.3 µM) | 18.3 | 32 (≈ 57.3 µM) |
| COc1ccc(-c2cc(C(F)(F)F)c3c(-c4ccc(C)cc4)nn(-c4ccc(S(N)(=O)=O)cc4)c3n2)cc1 | 256 (≈ 475 µM) | 128 (≈ 238 µM) | inactive | 17.3 | inactive | 14.6 | inactive |  |  |  |  |  |  |
| C[C@@H]1[C@H](O)[C@@H](C)/C=C/C=C/C=C/C=C/C=C/C=C/C=C/[C@H](O[C@@H]2O[C@H](C)[C@@H](O)[C@H](N)[C@@H]2O)C[C@@H]2O[C@](O)(C[C@@H](O)C[C@@H](O)[C@H](O)CC[C@@H](O)C[C@@H](O)CC(=O)O[C@H]1C)C[C@H](O)[C@H]2C(=O)O [AMPHOTERICIN B] |  |  |  |  |  |  |  |  |  | 19.3 | 20 (≈ 21.6 µM) | 16.6 | 20 (≈ 21.6 µM) |
| NS(=O)(=O)c1ccc(-n2nc(-c3ccc(Cl)cc3)c3c(C(F)(F)F)cc(C(F)(F)F)nc32)cc1 | 128 (≈ 246 µM) | 128 (≈ 246 µM) | inactive | 15.6 |  | 16.3 |  |  |  | 14.6 | 64 (≈ 123 µM) | 16.3 | 64 (≈ 123 µM) |
| Cc1ccc(-c2cc(C(F)(F)F)c3c(-c4ccc(C)cc4)nn(-c4ccc(S(N)(=O)=O)cc4)c3n2)cc1 | 128 (≈ 245 µM) | 128 (≈ 245 µM) | inactive | 16.3 | inactive | 15.3 | inactive |  |  |  |  |  |  |
